The text below walks through data of patent US8367360B2, “Method of screening for inhibitors of tau protein phosphororylation by tyrosine kinase c-Abl” (Proteome Sciences plc, priority 2004, dated 2013).

“Also recorded” adds a separate entry of the source.

In assay [1] the test system is primary rat neuronal cultures. The experiment in a line: Amyloid beta treatment of neurons and isolation of lipid rafts. It counts as cell-based. On the procedure:
Rat and human primary cortical neuronal cultures were treated with fibrillar Aβ25-35 or Aβ1-42 for 1-30 min. Lipid rafts were prepared from control untreated and Aβ-treated neuronal cultures by scraping the cells from one 80 cm^2 flask into 2 ml 1% Triton X-100 in 25 mM Mes, pH 6.5 containing protease inhibitors. Cells were disrupted by Dounce homgenization. The homogenate was mixed with 2 ml of 90% sucrose (w/v) in 25 mM Mes, 150 mM NaCl pH 6.5 and placed in a 12 ml centrifuge tube. A 5-35% step sucrose gradient was formed by overlaying the homogenate mix with 4 ml of a 35% (w/v) sucrose solution followed by 4 ml of a 5% (w/v) sucrose solution. This was then centrifuged at 39,000 rpm for 18 hr in a Beckman SW41 rotor. 1 ml fractions were collected from the top of each gradient. The lipid raft fraction partitioned at the interface between the 5% (w/v) sucrose layer and the 35% sucrose (w/v) layer, fractions 4 and 5. Lipid raft fractions were concentrated by mixing the raft fractions (4 and 5) with 10 ml dd H2O and centrifuging at 39,000 rpm for 2 h in a Beckman SW41 rotor. The supernatant was aspirated and the remaining pellet was resuspended in 100 μl of 2× sample buffer. Western blots of lipid raft proteins were probed for antibodies to flotillin and protein loading corrected by scanning densitometry. Tau was detected in lipid rafts by probing western blots of lipid raft proteins using a polyclonal anti-tau antibody (DAKO).

Assay [2] addresses V5 tagged human tau mutant Y310F (human) (UniProt P10636). The experiment in a line: cell-based or functional assay.
Assay [3] concerns the target V5 tagged human tau mutant Y394F (human) (UniProt P10636). The experiment in a line: cell-based or functional assay.
The target in assay [4] is V5 tagged human tau mutant Y197F (human) (UniProt P10636). The assay is described as follows: cell-based or functional assay.
In assay [5] the target is V5 tagged human tau mutant Y18F (human) (UniProt P10636). The experiment in a line: cell-based or functional assay.
For assay [6], the system named is COS-7 cells transfected with V5 tagged human tau. The experiment in a line: Phosphorylation of tyrosine residues in tau in cultured cells treated with pervanadate. It counts as cell-based. To be noted: 20 minutes, Y394-only mutant and wild-type tau. The text has this:
In a first set of experiments, COS-7 cells were transiently transfected with V5 tagged human tau longest isoform or with V5 tagged mutants of tau where one tyrosine has been replaced by one phenylalanine (named Y18F, Y29F, Y197F, Y310F and Y394F) constructs. In a second set of experiments, COS-7 cells were transiently transfected with the V5 tagged tau (441) construct or with V5 tagged mutants of tau where only one tyrosine is remaining, the four other tyrosines being replaced by phenyalanine (named Y18-only, Y29-only, Y197-only, Y310-only and Y394-only according to the remaining tyrosine). In order to increase tau tyrosine phosphorylation, cells were treated with the tyrosine phosphatase inhibitor pervanadate for 20 minutes. Cells were harvested in NETF buffer (100 mM NaCl, 2 mM EGTA, 50 mM Tris-Cl pH 7,4 and 50 mM NaF) containing 1% NP-40, 2 mM orthovanadate and protease inhibitors. Samples were precleared with 40 μl of protein G-Sepharose beads, and immunoprecipitations were carried out with monoclonal anti-V5 antibodies preadsorbed on protein G-Sepharose beads. Cells were harvested in NETF lysis buffer containing 1% NP-40 and tau was immunoprecipitated using an anti-V5 antibody. […] Quantification was achieved by scanning the autoradiograms with GS710 Calibrated Imaging Densitometer (Bio-Rad) and measurement of relative optical density with Quantity One 4.0.3 software (Bio-Rad).

The mark [7] stands for this setting: pre-treatment of neuronal cultures with inhibitor before exposure to Aβ.

Take `CC(C)(C)n1nc(-c2ccc(Cl)cc2)c2c(N)ncnc21` [PP2]: in assay [1] (inhibitor given with Aβ treatment, primary rat neuronal cultures, western blot of lipid rafts), the “Aβ-induced increase in tyrosine phosphorylation of lipid raft proteins” value is on record as “abrogated”. Moreover, in assay [1] (setting [7]), the “Aβ-induced recruitment of Fyn to lipid rafts” value is recorded as “blocking of the recruitment” and the “Aβ-induced recruitment/partitioning of tau into lipid rafts” value is “abrogated; also recorded: blocking of the recruitment”.

In the case of “AblΔXB (a constitutively active form of Abl, with deletion of most of the SH3 domain) (enzyme)”, the tyrosine phosphorylation of immunoprecipitated tau (4G10 Western blot), CHO cells co-transfected with AblΔXB (% of the wild-type control) in assay [2] was found to be 70; in assay [3], 25; in assay [4] it was 70.

Take “Aβ1-42: fibrillar amyloid β-peptide 1-42 used to treat neurons”: the “tyrosine phosphorylation of neuronal protein components of lipid rafts” value in assay [1] (peptide treatment of primary rat neuronal cultures) is recorded as “rapid increase”.

With “Fyn tyrosine kinase (expressed from Fyn cDNA in CHO cells) (from UniProt P06241 1-537) (enzyme)”, the tyrosine phosphorylation of immunoprecipitated tau (4G10 Western blot), CHO cells co-transfected with Fyn (% of the wild-type control) in assay [5] and in assay [2] was 50 throughout.

Take pervanadate: the “tyrosine phosphorylation of tau (4G10 western on immunoprecipitated tau)” value in assay [6] is listed as “induces an increase in tyrosine phosphorylation”.
